Columns and labels:
in vitro [1] = conditions: Sprague Dawley, rat, hepatocytes
MDR = experiment: in vitro; conditions: pig, LLC-PK1
LLC-PK1 = conditions: pig
in vitro [2] = conditions: human, hepatocytes
[3] = molecular target: T1, 5-hydroxytryptamine receptor 6 (Homo sapiens, UniProt P50406); experiment: Displacement of [3H]-N-Methyl-Lysergic acid diethylamide from human 5-HT6 receptor expressed in CHO cells after 30 mins by liquid scintillation counting analysis; assay type: cell-based
[4] = molecular target: T1, 5-hydroxytryptamine receptor 6; experiment: Antagonist activity at human recombinant 5-HT6 receptor expressed in CHO cells assessed as inhibition of agonist induced intracellular calcium levels by aequorin assay; assay type: functional, cell-based; conditions: read-out: pA2 (converted)
[5] = Ratio of drug uptake in rat CNS to plasma at 10 mg/kg, po; assay type: ADME, organism-based
[6] = molecular target: Voltage-gated inwardly rectifying potassium channel KCNH2 (Homo sapiens, UniProt Q12809); experiment: Inhibition of human ERG
[7] = Tmax in rat plasma at 10 mg/kg, po; assay type: ADME, organism-based
[8] = Clearance in rat at 10 mg/kg, po; assay type: ADME, organism-based; conditions: in vivo
[9] = Tmax in rat CNS at 10 mg/kg, po; assay type: ADME, organism-based
[10] = Cmax in rat plasma at 20 mg/kg, po; assay type: ADME, organism-based; set-up: dose 20 mg/kg, route oral
[11] = Binding affinity to alpha adrenergic receptor (unknown origin); set-up: species or system Homo sapiens
[12] = molecular target: Serotonin (5-HT) receptor; experiment: Binding affinity to 5-HT receptor (unknown origin); assay type: protein assay, Homo sapiens
Dopamine receptor = experiment: Binding affinity to dopamine receptor (unknown origin); assay type: protein assay, Homo sapiens
[13] = Oral bioavailability in rat at 10 mg/kg; assay type: ADME, organism-based; conditions: in vivo
[14] = Fraction unbound in rat brain at 10 mg/kg, po; assay type: ADME, organism-based
Rattus norvegicus = experiment: Inhibition of cognitive impairment in po dosed rat administered 0.5 hrs before testing; assay type: functional
[15] = Lipophilicity, log D of the compound at pH 7; assay type: physicochemical; conditions: buffer
[16] = Binding affinity to Muscarinic receptor (unknown origin); set-up: species or system Homo sapiens
Cannabinoid receptor = Cannabinoid receptor (Homo sapiens, UniProt P34972+P21554); experiment: Binding affinity to Cannabinoid receptor (unknown origin); assay type: protein assay

T1 sequence (P50406 whole entry): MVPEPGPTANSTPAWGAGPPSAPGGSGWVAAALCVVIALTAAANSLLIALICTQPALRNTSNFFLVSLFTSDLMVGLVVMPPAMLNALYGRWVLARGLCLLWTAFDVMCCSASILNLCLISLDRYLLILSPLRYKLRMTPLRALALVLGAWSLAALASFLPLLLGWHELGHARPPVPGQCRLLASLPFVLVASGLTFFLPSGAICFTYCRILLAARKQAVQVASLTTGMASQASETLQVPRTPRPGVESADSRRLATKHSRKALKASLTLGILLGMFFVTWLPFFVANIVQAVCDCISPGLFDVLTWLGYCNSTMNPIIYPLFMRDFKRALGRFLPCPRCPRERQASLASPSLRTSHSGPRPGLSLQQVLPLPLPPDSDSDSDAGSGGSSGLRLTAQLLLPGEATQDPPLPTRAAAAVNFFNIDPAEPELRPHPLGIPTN
Chain of Voltage-gated inwardly rectifying potassium channel KCNH2 (Q12809 whole entry): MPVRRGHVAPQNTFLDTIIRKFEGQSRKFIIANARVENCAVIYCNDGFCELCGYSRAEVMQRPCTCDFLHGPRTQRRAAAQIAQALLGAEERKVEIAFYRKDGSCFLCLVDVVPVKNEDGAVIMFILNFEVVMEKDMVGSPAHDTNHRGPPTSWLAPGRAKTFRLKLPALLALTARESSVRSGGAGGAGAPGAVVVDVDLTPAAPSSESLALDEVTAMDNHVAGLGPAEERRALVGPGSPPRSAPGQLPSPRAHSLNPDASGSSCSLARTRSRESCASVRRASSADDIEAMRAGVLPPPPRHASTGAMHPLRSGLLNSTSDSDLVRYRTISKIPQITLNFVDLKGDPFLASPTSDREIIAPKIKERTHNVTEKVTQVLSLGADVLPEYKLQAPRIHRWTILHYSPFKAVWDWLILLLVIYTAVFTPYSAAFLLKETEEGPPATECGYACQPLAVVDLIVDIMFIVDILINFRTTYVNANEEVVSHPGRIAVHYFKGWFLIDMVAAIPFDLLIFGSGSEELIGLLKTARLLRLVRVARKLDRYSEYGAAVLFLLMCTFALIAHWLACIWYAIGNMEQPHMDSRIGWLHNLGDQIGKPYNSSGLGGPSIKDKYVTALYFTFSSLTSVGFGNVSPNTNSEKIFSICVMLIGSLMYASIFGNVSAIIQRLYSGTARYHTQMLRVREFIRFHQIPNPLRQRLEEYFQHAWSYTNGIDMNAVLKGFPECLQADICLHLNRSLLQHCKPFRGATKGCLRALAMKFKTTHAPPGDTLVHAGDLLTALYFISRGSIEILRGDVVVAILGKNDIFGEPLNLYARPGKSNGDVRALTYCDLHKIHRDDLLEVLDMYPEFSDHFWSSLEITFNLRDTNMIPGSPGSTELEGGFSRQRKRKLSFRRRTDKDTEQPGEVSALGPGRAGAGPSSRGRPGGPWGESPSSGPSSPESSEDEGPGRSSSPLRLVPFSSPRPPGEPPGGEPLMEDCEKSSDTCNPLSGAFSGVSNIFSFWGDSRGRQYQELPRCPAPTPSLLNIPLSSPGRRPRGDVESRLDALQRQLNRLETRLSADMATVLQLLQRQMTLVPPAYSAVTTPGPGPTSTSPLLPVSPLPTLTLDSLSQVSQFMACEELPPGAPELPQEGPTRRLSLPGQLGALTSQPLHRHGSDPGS

hepatocyte CLint (in vitro [1]) [µL/min/1e6 cells] | efflux ratio at 3 h, 1 ug/ml (MDR) | permeability (LLC-PK1; llc-pk1, 3 h, at 1 µg/mL) [%] | hepatocyte CLint (in vitro [2]) [µL/min/1e6 cells] | Ki [3] [nM] | Kb [4] [nM] | SMILES | further results
92 | 1.1 | 38.2 | 15 |  |  | CCN/C(=N\S(=O)(=O)c1ccccc1)N1CC(CC)C=N1 (stereo not given) | 
 |  |  |  |  |  | CCN/C(=N\S(=O)(=O)c1cccc(Cl)c1)N1N=CCC1c1ccccc1 (stereo not given) | permeability (LLC-PK1; LLC-PK1, 3 h): 38.5%
 |  | 41 |  |  |  | CCN/C(=N\S(=O)(=O)c1cccc(Cl)c1)N1CC(C)(C)C=N1 | 
87 |  |  | 11 | 4.8 | 0.316 | CCN/C(=N\S(=O)(=O)c1ccc2[nH]ccc2c1)N1CC2(C=N1)CCCC2 | 
 | 1.3 | 39.4 |  | > 1000 | > 1000 | CCN/C(=N\S(=O)(=O)c1ccc(OC)c(Cl)c1)N1CC2(C=N1)CCCC2 | 
5 |  | 0.3 | 1 | 14.2 |  | CCN/C(=N\S(=O)(=O)c1ccc(N)cc1)N1CC2(C=N1)CCNCC2 | 
 | 1.1 | 40.7 |  | 18.5 | 7.94 | CCN/C(=N\S(=O)(=O)c1cccc(O)c1)N1CC2(C=N1)CCCC2 | 
 | 3.2 | 35.2 |  | 97.1 | 126 | CCN/C(=N\S(=O)(=O)c1cccc(OC)c1)N1CC2(C=N1)CCCC2 | 
66 | 2.4 | 20.5 | 34 | 14.6 | 10 | CCN/C(=N\S(=O)(=O)c1ccc(O)c(Cl)c1)N1CC2(C=N1)CCCC2 | 
 |  | 38.1 | 27 | 1.8 |  | CCN/C(=N\S(=O)(=O)c1ccc(N)c(Cl)c1)N1CC2(C=N1)CCCC2 | 
 |  |  | 107 | 6.1 | 0.0501 | CCN/C(=N\S(=O)(=O)c1cc(O)cc(Cl)c1)N1CC2(C=N1)CCCC2 | 
34 | 2.4 | 31.6 | 4 | 7.2 | 3.98 | CCN/C(=N\S(=O)(=O)c1ccc(N)cc1)N1CC(CC)C=N1 (stereo not given) | 
 | 1.8 | 36.5 |  | 399 | > 1000 | CCN/C(=N\S(=O)(=O)c1ccc2c(c1)NCC2)N1CC(CC)C=N1 (stereo not given) | 
20 | 3 | 31.6 | < 1.4 | 20.6 |  | CCN/C(=N\S(=O)(=O)c1ccc(N)cc1)N1CC(C)(C)C=N1 | 
 | 4.9 | 34.9 |  | 251 | > 1000 | CCN/C(=N\S(=O)(=O)c1cccc(Cl)c1)N1N=CCC1c1ccc(O)cc1 (stereo not given) | 
87 |  |  | 22 | 160 | > 1000 | CCN/C(=N\S(=O)(=O)c1ccc2[nH]c(C(F)(F)F)cc2c1)N1CC(C)(C)C=N1 | 
99 |  |  | 19 | 28.6 | 12.6 | CCN/C(=N\S(=O)(=O)c1ccc2[nH]ncc2c1)N1CC2(C=N1)CCCC2 | 
 | 1.2 | 40.4 |  | 210 | > 1000 | CCN/C(=N\S(=O)(=O)c1ccc(OC)cc1)N1CC2(C=N1)CCCC2 | 
 | 3.2 | 35.7 |  | 97.2 | 100 | CCN/C(=N\S(=O)(=O)c1cccc(N)c1)N1CC2(C=N1)CCCC2 | 
53 | 3.3 | 36.5 | 17 | 7.1 | 5.01 | CCN/C(=N\S(=O)(=O)c1ccc(N)cc1)N1CC2(C=N1)CCCCC2 | 
 |  |  |  | 47.5 | 63.1 | CCN/C(=N\S(=O)(=O)c1cc(Cl)cc(OC)c1)N1CC2(C=N1)CCCC2 | 
87 | 1.6 | 38.5 | 10 | 1.5 | 0.794 | CCN/C(=N\S(=O)(=O)c1ccc(N)c(Cl)c1)N1CC(CC)C=N1 (stereo not given) | 
 | 1.4 | 38.2 |  | 206 | > 1000 | CCN/C(=N\S(=O)(=O)c1ccc(N(C)C)cc1)N1CC(CC)C=N1 (stereo not given) | 
33 | 2.9 | 35.1 | 8 |  | 3.98 | CCN/C(=N\S(=O)(=O)c1ccc(N)cc1)N1CC2(C=N1)CCCC2 | Kp [5]: 0.1; IC50 [6]: > 10000 nM; Tmax [7]: 30 min; CL/F [8]: 26 mL/min/kg; Tmax [9]: 30 min; Cmax [10]: 1100 ng/mL; Ki [11]: > 1000 nM; Ki [12]: > 1000 nM; Ki (Dopamine receptor): > 1000 nM; bioavailability [13]: 18%; fraction unbound [14]: 0.31; LED (Rattus norvegicus): 20 mg/kg; logD [15]: 1; Ki [16]: > 1000 nM; Ki (Cannabinoid receptor): > 1000 nM
 | 2 | 34.4 |  | 8.7 | 10 | CCN/C(=N\S(=O)(=O)c1ccc(NC(C)=O)c(Cl)c1)N1CC(CC)C=N1 (stereo not given) | 
42 | 5.9 | 32 | 21 | 5.8 | 3.16 | CCN/C(=N\S(=O)(=O)c1ccc(O)cc1)N1CC2(C=N1)CCCC2 | 
 | 2.8 | 37.7 |  | 31.6 | 79.4 | CCN/C(=N\S(=O)(=O)c1ccc2cc[nH]c2c1)N1CC(CC)C=N1 (stereo not given) | 
 | 2.7 | 36.2 |  | > 1000 | 1580 | CCN/C(=N\S(=O)(=O)c1cccc(Cl)c1)N1N=CCC1c1ccc(N)cc1 (stereo not given) | 
 | 2.6 | 36.5 |  | 25 | 5.01 | CCN/C(=N\S(=O)(=O)c1ccc2c(c1)CCN2)N1CC2(C=N1)CCCC2 | 
 |  |  | 1 | 11.6 |  | CCN/C(=N\S(=O)(=O)c1ccc2[nH]ccc2c1)N1CC2(C=N1)CCNCC2 | 
